Test results taken from ChEMBL document CHEMBL1201862, “PubChem BioAssay data set” (2004).
Activity calls are given as the source filed them.

Experiments:
Cytochrome P450 2C19 = Cytochrome P450 2C19 (Homo sapiens, UniProt P33261); test: Cytochrome panel assay with activity outcomes. Panel member name: p450-cyp2c19 Compounds with AC50 equal or less than 10 uM are considered active; type: functional; settings: read-out: AC50
Cytochrome P450 2D6 = Cytochrome P450 2D6 (Homo sapiens, UniProt P10635);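 further: CYP2D6 member of a cytochrome P450 panel assay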
Cytochrome P450 2D6, sequence (P10635 whole entry): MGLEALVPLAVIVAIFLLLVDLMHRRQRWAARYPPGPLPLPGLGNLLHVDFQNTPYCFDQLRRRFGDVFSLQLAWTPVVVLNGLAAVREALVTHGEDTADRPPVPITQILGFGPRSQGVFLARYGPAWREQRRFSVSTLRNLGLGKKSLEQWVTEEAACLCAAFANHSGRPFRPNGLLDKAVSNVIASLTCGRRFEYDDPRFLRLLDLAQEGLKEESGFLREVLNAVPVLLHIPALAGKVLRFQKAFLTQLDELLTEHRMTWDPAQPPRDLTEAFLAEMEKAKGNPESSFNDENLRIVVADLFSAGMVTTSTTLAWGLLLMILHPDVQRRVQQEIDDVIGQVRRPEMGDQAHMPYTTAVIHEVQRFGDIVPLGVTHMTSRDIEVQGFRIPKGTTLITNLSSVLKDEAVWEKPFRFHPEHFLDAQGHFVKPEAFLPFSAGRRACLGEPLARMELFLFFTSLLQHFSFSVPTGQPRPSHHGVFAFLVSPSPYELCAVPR

Cytochrome P450 2C9 = Cytochrome P450 2C9 (Homo sapiens, UniProt P11712)
Cytochrome P450 2C9, sequence (P11712 whole entry): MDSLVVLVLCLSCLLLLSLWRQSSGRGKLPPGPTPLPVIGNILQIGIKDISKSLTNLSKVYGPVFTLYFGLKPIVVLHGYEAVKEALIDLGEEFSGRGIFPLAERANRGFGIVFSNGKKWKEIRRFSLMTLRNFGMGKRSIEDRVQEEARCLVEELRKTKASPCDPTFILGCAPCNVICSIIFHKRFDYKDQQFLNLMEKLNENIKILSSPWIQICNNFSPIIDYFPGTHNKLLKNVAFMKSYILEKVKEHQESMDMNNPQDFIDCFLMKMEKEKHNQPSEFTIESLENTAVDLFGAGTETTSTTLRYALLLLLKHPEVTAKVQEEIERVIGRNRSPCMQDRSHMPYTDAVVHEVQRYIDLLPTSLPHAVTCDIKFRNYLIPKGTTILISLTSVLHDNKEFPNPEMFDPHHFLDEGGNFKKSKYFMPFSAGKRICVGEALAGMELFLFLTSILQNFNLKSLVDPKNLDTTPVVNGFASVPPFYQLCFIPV

BJ [1] = test: cells; type: functional, cell-based; settings: Homo sapiens
BJ [2] = test: cytotoxicity toward BJ-TERT-LT-ST fibroblasts, dose response, cell-based, RAS-independent, luminescence (AID 1935); type: functional; settings: Homo sapiens;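 further: BJ fibroblasts immortalized with TERT plus LT and ST oncogenes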
BJ [3] = test: cytotoxicity toward BJ-TERT fibroblasts, dose response, cell-based, RAS-independent, luminescence (AID 1933); type: functional; settings: Homo sapiens
[4] = cytotoxicity toward DRD oncogenic fibroblasts, dose response, cell-based, non-viral oncogenic, luminescence (AID 1934); type: functional; settings: Homo sapiens
Vero [5] = test: cells; type: functional, cell-based; settings: Chlorocebus sabaeus
[6] = target: T1, Corticotropin-releasing factor receptor 2/Corticotropin-releasing factor-binding protein (Homo sapiens, UniProt P24387+Q13324); test: Dose Response confirmation of uHTS hits for small molecule antagonists of the CRF-binding protein and CRF-R2 receptor complex.; type: functional; settings: read-out: IC50_Mean
T1 sequence (Q13324 whole entry): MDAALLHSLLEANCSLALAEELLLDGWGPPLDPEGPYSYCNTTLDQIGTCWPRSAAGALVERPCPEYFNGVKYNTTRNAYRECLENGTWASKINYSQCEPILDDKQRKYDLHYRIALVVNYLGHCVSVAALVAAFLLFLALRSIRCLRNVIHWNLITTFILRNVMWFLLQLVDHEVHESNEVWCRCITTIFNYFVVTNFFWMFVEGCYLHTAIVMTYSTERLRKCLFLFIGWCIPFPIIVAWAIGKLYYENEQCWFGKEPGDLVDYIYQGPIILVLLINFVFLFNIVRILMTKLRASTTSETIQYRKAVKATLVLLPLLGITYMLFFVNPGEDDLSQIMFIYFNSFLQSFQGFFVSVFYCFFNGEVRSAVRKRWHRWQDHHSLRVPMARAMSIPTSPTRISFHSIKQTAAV
T1 sequence (P24387 whole entry): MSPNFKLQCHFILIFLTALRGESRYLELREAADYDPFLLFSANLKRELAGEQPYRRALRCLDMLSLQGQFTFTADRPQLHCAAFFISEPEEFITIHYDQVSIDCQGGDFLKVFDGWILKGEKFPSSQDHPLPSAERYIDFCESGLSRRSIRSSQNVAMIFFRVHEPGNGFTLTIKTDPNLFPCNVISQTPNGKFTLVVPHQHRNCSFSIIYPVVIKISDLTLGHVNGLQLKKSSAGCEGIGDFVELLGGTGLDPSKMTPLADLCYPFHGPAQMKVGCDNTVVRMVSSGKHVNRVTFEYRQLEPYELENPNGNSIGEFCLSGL

[7] = CRF-BP/CRF-R2 complex antagonists, dose response, cell-based, uHTS hits, 384-well (AID 651639); type: functional, Homo sapiens; settings: read-out: IC50_Mean
[8] = target: T1, Corticotropin-releasing factor receptor 2/Corticotropin-releasing factor-binding protein; test: activators of CRF receptor 2 with binding protein – uHTS hits, confirmation (AID 602473); type: functional; settings: read-out: EC50_Mean
Vero [9] = test: cells; type: functional; settings: Chlorocebus sabaeus
Interleukin-8 = target: T2, Interleukin-8 (Homo sapiens, UniProt P10145); test: Dose Response confirmation of uHTS small molecule hits for cystic fibrosis induced NFkb Inhibitors in a PAF-induced IL8 counterscreen.; type: functional; settings: read-out: IC50_Mean
T2 sequence (P10145 whole entry): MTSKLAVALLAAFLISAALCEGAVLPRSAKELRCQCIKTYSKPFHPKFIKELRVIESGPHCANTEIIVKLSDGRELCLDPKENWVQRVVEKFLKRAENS

Cytochrome P450 3A4 = Cytochrome P450 3A4 (Homo sapiens, UniProt P08684);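 further: CYP3A4 tested as one member of a cytochrome P450 panel screen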
Cytochrome P450 3A4, sequence (P08684 whole entry): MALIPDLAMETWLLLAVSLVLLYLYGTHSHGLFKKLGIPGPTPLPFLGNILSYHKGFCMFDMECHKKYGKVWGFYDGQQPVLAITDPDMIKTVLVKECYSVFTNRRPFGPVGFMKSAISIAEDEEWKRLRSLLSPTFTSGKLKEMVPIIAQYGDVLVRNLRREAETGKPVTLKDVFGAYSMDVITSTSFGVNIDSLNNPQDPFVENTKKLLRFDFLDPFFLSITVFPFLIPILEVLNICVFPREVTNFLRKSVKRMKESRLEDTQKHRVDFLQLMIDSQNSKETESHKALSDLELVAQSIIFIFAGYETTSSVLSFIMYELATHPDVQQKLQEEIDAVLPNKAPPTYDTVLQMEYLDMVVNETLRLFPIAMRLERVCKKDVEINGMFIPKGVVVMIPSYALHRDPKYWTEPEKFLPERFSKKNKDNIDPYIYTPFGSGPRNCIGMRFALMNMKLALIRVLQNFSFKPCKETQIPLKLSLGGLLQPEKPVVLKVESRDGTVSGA

[10] = target: T3, Rac GTPase-activating protein 1 (Homo sapiens, UniProt Q9H0H5); test: MgcRacGAP GTPase-activating activity inhibitors, confirmation, biochemical, ADP Hunter fluorescence, primary and confirmatory (AID 624330); type: functional
T3 sequence (Q9H0H5 whole entry): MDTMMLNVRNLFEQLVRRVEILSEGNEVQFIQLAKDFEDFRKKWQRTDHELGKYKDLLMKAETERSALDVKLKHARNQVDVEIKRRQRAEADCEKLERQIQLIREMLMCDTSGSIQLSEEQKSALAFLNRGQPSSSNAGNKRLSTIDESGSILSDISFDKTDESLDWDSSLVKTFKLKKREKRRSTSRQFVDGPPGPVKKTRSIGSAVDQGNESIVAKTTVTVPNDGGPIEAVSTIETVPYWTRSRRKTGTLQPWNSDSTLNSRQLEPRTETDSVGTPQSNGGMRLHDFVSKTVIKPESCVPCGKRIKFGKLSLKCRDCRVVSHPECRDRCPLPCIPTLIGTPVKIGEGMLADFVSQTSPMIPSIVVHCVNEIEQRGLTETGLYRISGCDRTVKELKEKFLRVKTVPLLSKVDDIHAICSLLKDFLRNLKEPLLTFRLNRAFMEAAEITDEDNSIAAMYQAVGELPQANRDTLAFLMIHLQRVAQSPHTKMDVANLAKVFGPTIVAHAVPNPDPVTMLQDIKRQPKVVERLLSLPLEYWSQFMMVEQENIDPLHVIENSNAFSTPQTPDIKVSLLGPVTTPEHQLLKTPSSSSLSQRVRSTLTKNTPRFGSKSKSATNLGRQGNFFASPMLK

[11] = target: T4, DNA repair protein RAD52 homolog (Homo sapiens, UniProt P43351); type: functional, biochemical
T4 sequence (P43351 whole entry): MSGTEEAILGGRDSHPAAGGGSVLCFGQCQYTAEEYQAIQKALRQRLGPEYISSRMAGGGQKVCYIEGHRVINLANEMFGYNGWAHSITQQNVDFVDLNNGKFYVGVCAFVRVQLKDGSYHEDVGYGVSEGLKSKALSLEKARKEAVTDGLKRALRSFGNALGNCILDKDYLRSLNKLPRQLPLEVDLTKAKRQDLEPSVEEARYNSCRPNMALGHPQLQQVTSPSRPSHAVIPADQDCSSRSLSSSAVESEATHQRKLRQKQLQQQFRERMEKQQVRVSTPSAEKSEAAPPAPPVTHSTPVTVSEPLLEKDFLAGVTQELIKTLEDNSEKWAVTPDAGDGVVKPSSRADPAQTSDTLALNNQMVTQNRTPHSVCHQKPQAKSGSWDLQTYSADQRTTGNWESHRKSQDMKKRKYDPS

[12] = StAR promoter reporter inhibition counter-screen, dose response, counter-screen for LRH-1 inverse agonist project, cell-based, luminescence, luciferase reporter (AID 651969); type: functional
[13] = target: Nuclear receptor subfamily 5 group A member 2 (Homo sapiens, UniProt O00482); type: functional, cell-based;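 further: HEK293T cells transfected with LRH-1 and a StAR promoter luciferase reporter; potency for inhibitors that lower LRH-1 driven reporter light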
Nuclear receptor subfamily 5 group A member 2, sequence (O00482 whole entry): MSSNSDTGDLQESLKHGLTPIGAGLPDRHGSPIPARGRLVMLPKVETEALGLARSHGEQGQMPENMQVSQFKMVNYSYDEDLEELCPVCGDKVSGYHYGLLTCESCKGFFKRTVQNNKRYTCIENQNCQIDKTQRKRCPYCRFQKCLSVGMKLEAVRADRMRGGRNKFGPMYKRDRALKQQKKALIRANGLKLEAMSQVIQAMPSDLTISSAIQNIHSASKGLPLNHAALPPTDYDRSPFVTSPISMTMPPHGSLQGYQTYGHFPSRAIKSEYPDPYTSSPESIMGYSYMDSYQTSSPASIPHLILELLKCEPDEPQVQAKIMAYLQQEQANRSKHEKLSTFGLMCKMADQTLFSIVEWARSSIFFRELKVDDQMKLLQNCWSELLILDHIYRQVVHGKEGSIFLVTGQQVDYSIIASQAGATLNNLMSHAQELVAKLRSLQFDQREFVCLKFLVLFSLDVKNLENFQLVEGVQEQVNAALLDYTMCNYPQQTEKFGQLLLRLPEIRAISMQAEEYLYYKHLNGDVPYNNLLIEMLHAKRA

Steroidogenic factor 1 = Steroidogenic factor 1 (Homo sapiens, UniProt Q13285); test: Counterscreen for inverse agonists of the liver receptor homolog-1 (LRH-1; NR5A2): Luminescence-based cell-based high throughput dose response assay to identify inverse agonists of the Steroidogenic Factor 1 Nuclear Receptor (SF1; NR5A1).; type: functional
Steroidogenic factor 1, sequence (Q13285 whole entry): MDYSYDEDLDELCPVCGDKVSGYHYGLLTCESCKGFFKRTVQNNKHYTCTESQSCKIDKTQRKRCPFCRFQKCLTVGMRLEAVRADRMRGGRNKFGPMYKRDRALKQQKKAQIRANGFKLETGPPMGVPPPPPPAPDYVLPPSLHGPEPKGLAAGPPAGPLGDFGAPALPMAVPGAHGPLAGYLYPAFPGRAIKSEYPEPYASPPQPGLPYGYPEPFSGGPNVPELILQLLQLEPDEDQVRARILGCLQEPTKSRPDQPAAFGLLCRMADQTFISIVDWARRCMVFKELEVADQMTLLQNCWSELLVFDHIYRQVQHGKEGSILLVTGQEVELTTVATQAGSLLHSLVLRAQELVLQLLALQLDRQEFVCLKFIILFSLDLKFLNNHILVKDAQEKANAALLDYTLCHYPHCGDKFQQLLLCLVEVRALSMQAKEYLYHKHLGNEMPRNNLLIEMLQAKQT

Cytochrome P450 2C19, sequence (P33261 whole entry): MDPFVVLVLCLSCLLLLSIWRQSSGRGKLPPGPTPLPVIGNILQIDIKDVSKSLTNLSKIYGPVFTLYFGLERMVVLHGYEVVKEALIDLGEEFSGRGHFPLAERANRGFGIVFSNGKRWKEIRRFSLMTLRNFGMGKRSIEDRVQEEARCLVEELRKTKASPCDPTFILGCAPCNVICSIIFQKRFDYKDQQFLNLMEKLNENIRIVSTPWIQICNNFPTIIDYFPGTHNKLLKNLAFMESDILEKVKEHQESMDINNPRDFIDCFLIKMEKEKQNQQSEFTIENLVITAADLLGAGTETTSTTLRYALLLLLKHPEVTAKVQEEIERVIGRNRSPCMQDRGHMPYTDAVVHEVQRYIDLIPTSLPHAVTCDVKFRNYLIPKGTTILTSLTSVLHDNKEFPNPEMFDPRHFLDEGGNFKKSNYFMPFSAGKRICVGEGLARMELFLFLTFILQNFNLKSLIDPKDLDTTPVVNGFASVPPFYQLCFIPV

## COc1ccccc1OCCCCCc1c(C)n[nH]c1C
Cytochrome P450 2C19
  AC50: 1.58 µM (inconclusive)
Cytochrome P450 2D6
  AC50: 11.2 µM (inconclusive)
Cytochrome P450 2C9
  AC50: inconclusive

## COc1ccc2c(-c3cc4ccc(OCc5ccc(F)cc5)cc4oc3=O)cc(=O)oc2c1
BJ [1]
  EC50: > 150 µM (not active)
BJ [2]
  EC50: 7.45 µM (inconclusive)
BJ [3]
  EC50: 3.13 µM (active)
[4]
  EC50: 8.57 µM (active)

## O=C1C2CCCN2C(c2ccc(F)cc2)N1c1ccc(Cl)cc1 (stereo not given)
Vero [5]
  IC50: > 25 µM (active)

## COc1ccc(Cl)cc1NC(=O)CN1C(=O)CSC1=O
Cytochrome P450 2C19
  AC50: 39.8 µM (inconclusive)
Cytochrome P450 2D6
  AC50: 5.62 µM (inconclusive)
Cytochrome P450 2C9
  AC50: inconclusive

## Cc1[nH]c2nc(SCC(=O)c3cccc([N+](=O)[O-])c3)nc-2cc1Br
[6]
  IC50: < 0.368 µM (active)
[7]
  IC50: 6.28 µM (active)
[8]
  EC50: > 53 µM (inactive)

## Cn1cc([N+](=O)[O-])c(C(=O)Nc2ccn(C34CC5CC(CC(C5)C3)C4)n2)n1
Vero [5]
  IC50: 24.3 µM (active)
Vero [9]
  CC50: > 25 µM (active)

## CCc1cc(-c2n[nH]cc2-c2ccc(OC)cc2)c(O)cc1O
Interleukin-8
  IC50: 6.31 µM (active)

## O=C1c2ccccc2C(=O)N1Cc1cc(-c2ccccc2Cl)no1
Cytochrome P450 3A4
  AC50: 39.8 µM (inconclusive)
Cytochrome P450 2D6
  AC50: 3.16 µM (inconclusive)
Cytochrome P450 2C9
  AC50: inconclusive

## CCCCN(CC)CCNC(=O)CCC(=O)Nc1ccc2nc(N3CCN(C)CC3)cc(C)c2c1
[10]
  IC50: 164 µM (active)
[11]
  AC50: 3.22 µM (active)

## COCCNc1ccc([N+](=O)[O-])cc1C(=O)NC1CCCc2ccccc21 (stereo not given)
[12]
  IC50: 35.9 µM (inactive)
[13]
  IC50: 9.5 µM (active)
Steroidogenic factor 1
  IC50: 5.53 µM (active)
